Values of other authors, collected in US20080188457A1, “Modulation of Neurogenesis with Biguanides and GSK3-beta Agents” (BrainCells, Inc., priority 2007, published 2008).
Blank lines part the entries; values can stand above or below the molecule they belong to.

Key:
human mGlu2 receptor = human mGlu2 receptor (Homo sapiens, UniProt Q14416); settings: in vitro; low nanomolar range
human mGlu3 receptor = human mGlu3 receptor (Homo sapiens, UniProt Q14832); settings: in vitro; low nanomolar range
mGluR2 = mGluR2 (Homo sapiens, UniProt Q14416)
mGluR3 = mGluR3 (Homo sapiens, UniProt Q14832)
[1] = tested on: Group I or Group III receptors; settings: at sub-mM concentrations
gluconeogenesis = settings: person with type 2 diabetes
[2] = tested on: KA, AMPA, and NMDA iGlu receptors

Sequence of human mGlu2 receptor (Q14416 19-872): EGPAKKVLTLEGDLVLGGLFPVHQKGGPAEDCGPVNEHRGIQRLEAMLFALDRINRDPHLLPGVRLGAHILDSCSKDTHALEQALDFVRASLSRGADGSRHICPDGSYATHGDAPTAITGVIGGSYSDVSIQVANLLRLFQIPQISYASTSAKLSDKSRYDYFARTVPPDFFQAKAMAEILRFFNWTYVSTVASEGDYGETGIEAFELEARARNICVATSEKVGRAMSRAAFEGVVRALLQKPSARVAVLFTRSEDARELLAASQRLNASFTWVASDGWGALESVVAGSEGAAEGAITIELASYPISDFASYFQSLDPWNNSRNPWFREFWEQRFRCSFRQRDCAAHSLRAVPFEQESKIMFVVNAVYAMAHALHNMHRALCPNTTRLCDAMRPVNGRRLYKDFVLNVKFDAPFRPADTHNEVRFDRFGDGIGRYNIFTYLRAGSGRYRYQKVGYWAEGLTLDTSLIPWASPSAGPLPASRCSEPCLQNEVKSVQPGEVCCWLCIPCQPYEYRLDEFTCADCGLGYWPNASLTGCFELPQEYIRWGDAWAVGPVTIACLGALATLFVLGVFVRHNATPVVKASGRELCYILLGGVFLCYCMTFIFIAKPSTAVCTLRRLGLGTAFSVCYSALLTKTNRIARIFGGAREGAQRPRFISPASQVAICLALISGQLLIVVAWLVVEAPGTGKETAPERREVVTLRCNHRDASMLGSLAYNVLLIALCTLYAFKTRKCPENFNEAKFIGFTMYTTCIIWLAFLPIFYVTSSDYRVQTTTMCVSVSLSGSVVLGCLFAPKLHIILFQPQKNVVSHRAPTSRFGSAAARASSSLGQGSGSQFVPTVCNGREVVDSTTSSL
Sequence of mGluR2 (Q14416 19-872): as above
Sequence of human mGlu3 receptor (Q14832 23-879): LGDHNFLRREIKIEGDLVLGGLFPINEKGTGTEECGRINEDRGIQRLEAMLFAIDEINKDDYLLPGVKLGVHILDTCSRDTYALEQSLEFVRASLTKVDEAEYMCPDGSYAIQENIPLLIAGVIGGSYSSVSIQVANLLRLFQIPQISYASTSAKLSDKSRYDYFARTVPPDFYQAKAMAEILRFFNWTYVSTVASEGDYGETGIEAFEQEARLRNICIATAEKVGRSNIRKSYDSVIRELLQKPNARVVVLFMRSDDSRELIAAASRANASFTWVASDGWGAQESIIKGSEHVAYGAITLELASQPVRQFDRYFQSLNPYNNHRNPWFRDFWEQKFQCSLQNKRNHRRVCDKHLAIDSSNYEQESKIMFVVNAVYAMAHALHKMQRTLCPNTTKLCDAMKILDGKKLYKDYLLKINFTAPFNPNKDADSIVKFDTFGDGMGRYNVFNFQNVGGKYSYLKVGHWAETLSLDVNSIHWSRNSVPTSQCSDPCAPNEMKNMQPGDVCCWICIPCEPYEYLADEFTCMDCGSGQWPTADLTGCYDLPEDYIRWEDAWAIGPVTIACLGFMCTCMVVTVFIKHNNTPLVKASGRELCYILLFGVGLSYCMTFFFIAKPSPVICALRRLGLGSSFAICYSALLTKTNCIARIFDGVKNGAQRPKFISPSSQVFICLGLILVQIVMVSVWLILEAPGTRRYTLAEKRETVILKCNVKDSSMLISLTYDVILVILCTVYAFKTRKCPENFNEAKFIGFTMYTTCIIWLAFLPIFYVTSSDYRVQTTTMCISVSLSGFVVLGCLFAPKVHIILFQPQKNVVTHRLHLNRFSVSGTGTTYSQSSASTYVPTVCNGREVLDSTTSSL
Sequence of mGluR3 (Q14832 23-879): as above

EC50 (human mGlu2 receptor): < 0.01 µM
EC50 (human mGlu3 receptor): < 0.01 µM
SMILES: N[C@@]1(C(=O)O)CO[C@H]2[C@H](C(=O)O)[C@H]21 [LY379268, (−)-2-Oxa-4-aminobicyclohexane-4,6-dicarboxylic acid]

IC50 (mGluR2): ~30 µM
IC50 (mGluR3): ~30 µM
activity against Group I or Group III receptors [1]: no appreciable activity
SMILES: NC1(C(=O)O)CCc2cc(P(=O)(O)O)ccc21 (racemic) [APICA, (RS)-1-amino-5-phosphonoindan-1-carboxylic acid]

SMILES: CN(C)C(=N)NC(=N)N [metformin, 1,1-Dimethylbiguanide]
reduction of the rate of gluconeogenesis (gluconeogenesis): over one third

activity against KA, AMPA, and NMDA iGlu receptors [2]: substantially inactive
SMILES: N[C@](CC1c2ccccc2Oc2ccccc21)(C(=O)O)[C@H]1C[C@@H]1C(=O)O [LY341495, (2S)-2-amino-2-(1S,2S-2-carboxycycloprop-1-yl)-3-(xanth-9-yl) propanoic acid]
